# Patent publication US12195558B2, “Targeted delivery system and methods of use therefor” (SANFORD BURNHAM PREBYS MEDICAL DISCOVERY INSTITUTE, priority 2015, dated 2025)
# Bridge positions count the residues as written; N and C are the ends. Ends that are not written are not given here.
# Tests used:
# p32 [1] = target: T1, p32 (Homo sapiens, UniProt Q07021); assay: Binding of peptide-displaying T7 phage to p32-coated magnetic beads; conditions: phage-displayed peptide; relative to LyP-1
# T1 construct: made in house; host or cells: E. coli Rosetta-gami-2 (Novagen)
# T1 sequence (Q07021 74-282): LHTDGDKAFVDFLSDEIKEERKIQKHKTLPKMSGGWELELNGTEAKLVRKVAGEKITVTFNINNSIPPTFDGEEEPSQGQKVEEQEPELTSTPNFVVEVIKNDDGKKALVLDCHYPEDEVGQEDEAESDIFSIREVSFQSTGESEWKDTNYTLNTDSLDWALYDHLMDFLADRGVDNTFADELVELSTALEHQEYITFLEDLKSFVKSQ
# Procedure: FIG. 10 is a bar graph showing that the p32 binding of the RGXR(S/T) motif (SEQ ID NOs: 4 and 5) in the exemplary TT1 peptide (SEQ ID NO: 3) was not dependent on the cyclic structure and compatible with flanking sequences. Phage clones displaying the indicated peptides were incubated in p32-coated magnetic microbeads. After washing to remove non-bound phage, specifically bound phage were quantified.
# Milligram quantities of recombinant His-tagged p32 protein were expressed in E. coli and coated onto Ni-NTA magnetic beads, and biopanning was performed using two T7 bacteriophage peptide libraries (cyclic Cx7C and linear X7 library).
# (§1) Variant peptide-encoding genomic DNA of phage was sequenced and analyzed for the presence of consensus motifs. After two rounds of selection, both linear and cyclic libraries converged to contain an RGXRS (SEQ ID NO: 4) pentapeptide motif (see FIG. 2B). The binding of RGXRS (SEQ ID NO: 4)-displaying phage to p32 was specific, as these phage bound to magnetic beads coated with p32 protein and not to beads coated with ligand-binding b1b2 domain of the cell and tissue penetration receptor NRP-1 or BSA (see FIG. 3).
# (§2) An exemplary RGXRS (SEQ ID NO: 4) pentapeptide motif-containing peptide with the sequence CKRGARSTC (SEQ ID NO: 3) was designated as the […] and used it for further studies. Mutating any amino acid in the consensus motif of TT1 abolished the phage binding to p32. This new peptide conferred about 15-fold stronger phage binding to immobilized p32 protein than did the canonical LyP-1 peptide.
# [2] = system: MCF10 breast cancer cells; assay: In vitro binding and internalization of FAM-labeled peptide in MCF10 cells; format: cell-based; conditions: 100 μM FAM-labeled peptide, 1 hour at 37° C.
# Procedure: (§3) FIGS. 6A and 6B are fluorescence micrographs showing internalization of CKRGARSTC (TT1; SEQ ID NO: 3) peptide in breast tumor cells in vitro. 100 μM FAM-labeled peptides were incubated with 4T1 (FIG. 6A) or MCF10 (FIG. 6B) breast cancer cells for 1 hour at 37° C. in DMEM high glucose/10% serum medium. Cells were washed, fixed, stained with anti-FITC antibody, and MITOTRACKER® (Life Technologies) or phalloidin as indicated. Scale bars: 20 μm.
# (§4) The ability of the TT1 Peptide to bind to cultured breast tumor cells was tested in vitro.
# NRP-1 b1b2 domain = target: T2, NRP-1 b1b2 domain (Homo sapiens, UniProt O14786); assay: Binding of peptide-displaying T7 phage to NRP-1 b1b2-coated magnetic beads; conditions: 30 minutes at 37° C., p32 versus NRP-1 b1b2 beads
# T2 sequence (O14786 273-586 limits assumed): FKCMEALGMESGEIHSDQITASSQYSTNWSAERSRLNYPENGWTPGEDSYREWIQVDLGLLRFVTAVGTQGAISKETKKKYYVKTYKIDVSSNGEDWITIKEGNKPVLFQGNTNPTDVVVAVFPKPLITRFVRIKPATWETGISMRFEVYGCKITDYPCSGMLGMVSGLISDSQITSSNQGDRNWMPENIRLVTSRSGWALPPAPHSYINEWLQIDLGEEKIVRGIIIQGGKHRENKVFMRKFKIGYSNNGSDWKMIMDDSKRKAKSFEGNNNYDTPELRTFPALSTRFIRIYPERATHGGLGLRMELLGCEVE
# Procedure: FIG. 9 is a bar graph showing proteolytic switching of binding specificity of an exemplary TT1 peptide (SEQ ID NO: 3). T7 phage displaying an exemplary TT1 peptide (SEQ ID NO: 3) were exposed to increasing concentrations of crystalline trypsin and incubated for 30 minutes at 37° C. After treatment, phage were incubated with magnetic beads coated with either p32 (decending hatching left to right) or NRP-1 b1b2 (ascending hatching left to right) protein, followed by washes to remove unbound phage and quantitation of specifically bound phage.
# as §1
# The p32 binding motif with consensus sequence RGXRS (SEQ ID NO: 4; i.e., the RGXRS (SEQ ID NO: 4) pentapeptide motif) contains a cryptic RGXR CendR element that can be unmasked by a tryptic cleavage. […]
# MDA-MB-231 xenografts = assay: In vivo homing of intravenous peptide, MDA-MB-231 xenografts; set-up: species or system mice; conditions: i.v.
# [3] = system: orthotopic 4T1 breast tumors; assay: In vivo homing of intravenous FAM-labeled peptide, 4T1 tumors; set-up: species or system mice; conditions: 4T1 syngeneic tumors, 200 μg FAM-labeled peptide i.v., 2 hours
# Procedure: (§5) FIGS. 7A and 7B are photographs depicting in vivo homing of an exemplary TT1 peptide. 200 μg of FAM-labeled TT1 (SEQ ID NO: 3) peptide or control peptide in PBS was intravenously injected to mice bearing orthotopic 4T1 (FIG. 7A) or MCF7 (FIG. 7B) breast tumors. The peptides were allowed to circulate for 2 hours and organs were collected and photographed under white (top panels) or UV (bottom panels) light. Arrows point to the tumors of TT1 (SEQ ID NO: 3)-injected mice. Note robust signal (white in black and white versions and green in color versions of the Figures) indicating homing of TT1 (SEQ ID NO: 3) peptide to the tumor in both models. H: heart; Lu: lung; Li: liver; Ki: kidney; Sp: spleen; T: tumor.
# [4] = Aggregation of peptide-coated nanoparticles; format: physicochemical; conditions: peptide on nanoparticles
# From the text: The linear TT1 Peptide was selected for further study as a D[KLAKLAK]2 (SEQ ID NO: 42) conjugate on NWs. The CGKRK (SEQ ID NO: 6) and LyP-1 Peptides were included for comparison.
# NRP-1 = NRP-1 (Homo sapiens, UniProt O14786); assay: Fluorescence polarization assay on NRP-1 (control protein); format: binding; conditions: NRP-1 as control protein
# Sequence of NRP-1 (O14786 22-923): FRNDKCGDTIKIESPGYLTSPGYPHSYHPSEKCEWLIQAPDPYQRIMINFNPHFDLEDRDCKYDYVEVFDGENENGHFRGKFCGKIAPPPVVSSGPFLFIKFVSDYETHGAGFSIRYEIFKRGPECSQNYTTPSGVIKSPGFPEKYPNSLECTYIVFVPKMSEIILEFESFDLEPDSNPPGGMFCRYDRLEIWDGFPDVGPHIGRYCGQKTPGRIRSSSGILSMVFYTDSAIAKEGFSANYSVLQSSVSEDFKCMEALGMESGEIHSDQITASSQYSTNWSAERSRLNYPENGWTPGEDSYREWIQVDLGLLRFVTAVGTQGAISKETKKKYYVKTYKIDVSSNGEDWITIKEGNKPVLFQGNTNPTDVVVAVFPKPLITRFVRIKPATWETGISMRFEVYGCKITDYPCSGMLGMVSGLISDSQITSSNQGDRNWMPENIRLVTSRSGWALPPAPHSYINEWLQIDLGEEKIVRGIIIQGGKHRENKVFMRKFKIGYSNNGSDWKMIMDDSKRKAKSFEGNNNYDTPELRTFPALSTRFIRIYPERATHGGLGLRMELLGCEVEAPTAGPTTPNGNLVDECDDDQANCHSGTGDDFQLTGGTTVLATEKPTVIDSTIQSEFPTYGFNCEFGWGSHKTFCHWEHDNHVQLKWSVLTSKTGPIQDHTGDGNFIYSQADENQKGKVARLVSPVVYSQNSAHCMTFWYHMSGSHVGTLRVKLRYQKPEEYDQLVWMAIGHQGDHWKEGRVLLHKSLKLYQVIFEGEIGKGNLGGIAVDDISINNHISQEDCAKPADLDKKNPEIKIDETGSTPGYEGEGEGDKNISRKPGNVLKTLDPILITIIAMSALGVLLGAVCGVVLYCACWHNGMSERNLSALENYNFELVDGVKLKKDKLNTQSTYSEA
# From the text: (§6) FIGS. 4A and 4B are plots showing a comparison of the binding of LyP-1 (SEQ ID NO: 7; diamonds) and TT1 (SEQ ID NO: 3; squares) to p32 in a fluorescence polarization assay. […] NRP-1 was used as a control protein.
# atherosclerotic plaques = assay: Homing to atherosclerotic plaques in ApoE null mice on high-fat diet; format: in vivo; conditions: for homing to and penetration into plaque tissue: 100 mg FAM labeled peptide i.v., one hour
# Procedure: ApoE null mice that had been kept on a high-fat diet were intravenously injected with […] of the FAM labeled peptides. One hour later, the mice were perfused through the heart under anesthesia, and tissues were collected. The panels show accumulation of FAM labeled peptides visualized with UV excitation. The center two and right two panels show atherosclerotic aortas that were sectioned at the aortic root level and examined by confocal microscopy.
# p32 [5] = target: T1, p32; assay: Fluorescence polarization assay with synthetic peptides on p32; format: binding; conditions: for binding to p32 in fluorescence polarization assay (in words): synthetic peptides
# From the text: as §6
# FIG. 5 is a plot showing that P32-TT1 (CKRGARSTC; SEQ ID NO: 3) and LyP-1 (SEQ ID NO: 7) peptides competed for binding to the P32 protein. […] Squares: p32-TT1; Diamonds: LyP-1; X: RPARPAR peptide (SEQ ID NO: 14).
# as §2
# [6] = system: orthotopic MCF7 breast tumors; assay: In vivo homing of intravenous FAM-labeled peptide, MCF7 tumors; set-up: species or system mice; conditions: 200 μg FAM-labeled peptide i.v., 2 hours
# Procedure: as §5
# 4T1 breast cancer cells = assay: In vitro binding and internalization of FAM-labeled peptide in 4T1 cells; format: cell-based; conditions: 100 μM FAM-labeled peptide, 1 hour at 37° C.
# Procedure: as §3, §4
sequence,measurement,setting,value
CKRGARSTC (disulfide 1-9 (inferred)) [TT1 Peptide],"phage binding to immobilized p32 protein, fold stronger than the canonical LyP-1 peptide",p32 [1],about 15 fold
same,cell surface binding and internalization,[2],rapidly bound to the surface of 4T1 and MCF10 breast cancer cells and was internalized over time
same,binding specificity after exposure to trypsin,NRP-1 b1b2 domain,affinity switching from p32 to NRP-1 b1b2
same,tumor homing,MDA-MB-231 xenografts,homed to breast tumors
same,tumor homing,[3],homed to breast tumors
same,tumor homing,[3]; listed as TT1,robust signal
same,aggregation of the peptide-coated nanoparticles,[4],tended to cause aggregation of the peptide-coated nanoparticles
same,binding to NRP-1 in fluorescence polarization assay (in words),NRP-1,only background binding
same,homing to and penetration into plaque tissue,atherosclerotic plaques,homed to and penetrated atherosclerotic lesions
same,homing to and penetration into plaque tissue,atherosclerotic plaques; listed as TT1,homed to and penetrated into plaque tissue as well as or better than LyP-1
same,plaque homing compared with LyP-1 peptide,atherosclerotic plaques; ApoE null mice on high-fat diet,more robust than seen with the LyP-1 peptide
same,inhibition of binding of labeled TT1 to P32 by unlabeled peptide,"p32 [5]; competition, fluorescence polarization",could be inhibited
same,binding site on p32,p32 [5]; fluorescence polarization,shared the binding site on p32 with the LyP-1 peptide
same,affinity for p32 (in words),p32 [5]; method not stated at the place,high affinity for p32
same,binding to p32 in fluorescence polarization assay (in words),p32 [5],specific
same,binding to p32 in fluorescence polarization assay (in words),p32 [5]; listed as TT1,bound to p32 with a higher affinity than LyP-1
same,tumor homing,[6],homed to breast tumors
same,tumor homing,[6]; listed as TT1,robust signal
same,cell surface binding and internalization,4T1 breast cancer cells,rapidly bound to the surface of 4T1 and MCF10 breast cancer cells and was internalized over time
